From patent publication US8299056B2 (Signal Pharmaceuticals, LLC, priority 2008, dated 2012)

molecular target: T1, Syk (Homo sapiens, UniProt P43405); assay: Syk HTRF assay; format: biochemical; conditions: IC50 activity level, read-out: Activity Level
T1 construct: purchased Carna Biosciences
Method: Test compounds were prepared at a concentration of 1.5 mM in DMSO followed by 3-fold dilutions in Greiner […] polypropylene plates. A 1:4 dilution of compounds by 8 μL/well transfer from the polypropylene plates to 24 μL/well Assay Buffer in Costar 3710 384 well black plates was then performed. Kinases (13 μL/well) or Assay Buffer only (background controls; 50 mM HEPES pH 7.6, 1 mM DTT, 10 mM MgCl2, 0.01% Triton X100, 0.01% BSA and 0.1 mM EDTA) were added to Costar 3710 384-well black plates for the HTRF assays (Carna Biosciences) and compound was added from the 1:4 dilution plate. Syk start mix (87.5 μM ATP, 80 nM Substrate Peptide (American Peptide Company 332722) was added and the mixture was incubated at room temperature for 1 hour. Syk Stop Solution (120 mM EDTA in dilution buffer) was then added to the Syk HTRF assay plate and incubated at room temperature on a shaker for 2 minutes. Syk Antibody Mix (4.86 μg/mL DyLight 647 Streptavidin (Pierce 21824); 1 μg/mL Lance Eu-Anti-Phosphotyrosine (PerkinElmer AD0069)) was added to the Syk HTRF assay plate and the mixture was further incubated at room temperature for >4 h. Time resolved fluorescence was read in assay plates on a PerkinElmer EnVision. HTRF assays were performed using 320 nm excitation, 60 μs delay, 665 nm and 615 nm emission. Data was expressed by division of 665 nm by 615 nm emissions.

| SMILES | IC50 |
| --- | --- |
| Cc1cc(Nc2nc3cccc(CN4CCNC(=O)C4)n3n2)cc2c1C(C)(C)C(=O)N2 [Example 546] | 0.005 to 250 nM |
| O=C1NCc2cc(-c3cccc4nc(Nc5ccccc5)nn34)ccc21 [Example 496, 5-(2-(phenylamino)-[1,2,4]triazolo[1,5-a]pyridin-5-yl)isoindolin-1-one] | 250 to 500 nM |
| CNC(=O)c1ccc(Nc2nc3cccc(-c4ccc5nn[nH]c5c4)n3n2)cc1 [Example 432, 4-(5-(1H-benzo[d][1,2,3]triazol-6-yl)-[1,2,4]triazolo[1,5-a]pyridin-2-ylamino)-N-methylbenzamide] | 0.005 to 250 nM |
| NCCN1Cc2ccc(-c3cccc4nc(Nc5ccccc5)nn34)cc2C1=O [Example 495, 2-(2-aminoethyl)-6-(2-(phenylamino)-[1,2,4]triazolo[1,5-a]pyridin-5-yl)isoindolin-1-one] | 1000 to 10000 nM |
| CCN1CCC(Cc2cccc3nc(Nc4ccc(C(F)(F)F)cc4)nn23)CC1 [Example 407, 5-((1-ethylpiperidin-4-yl)methyl)-N-(4-(trifluoromethyl)phenyl)-[1,2,4]triazolo[1,5-a]pyridin-2-amine] | 500 to 1000 nM |
| OC(Cc1cccc2nc(Nc3ccc(F)cc3)nn12)c1ccccc1 (stereo not drawn) [Example 431, 2-(2-(4-fluorophenylamino)-[1,2,4]triazolo[1,5-a]pyridin-5-yl)-1-phenylethanol] | 250 to 500 nM |

The remaining lines, values ahead:

| IC50 | SMILES |
| --- | --- |
| 0.005 to 250 nM | Cn1c(=O)[nH]c2cc(Nc3nc4cccc(NC5CCOCC5)n4n3)ccc21 [Example 569, 1-methyl-5-(5-(tetrahydro-2H-pyran-4-ylamino)-[1,2,4-]triazolo[1,5-a]pyridin-2-ylamino)-1H-benzo[d]imidazol-2(3H)-one] |
| 0.005 to 250 nM | c1cc(N[C@H]2CCCNC2)n2nc(Nc3ccc4nn[nH]c4c3)nc2c1 [Example 454, (S)-N^2-(1H-benzo[d][1,2,3]triazol-6-yl)-N^5-(piperidin-3-yl)-[1,2,4]triazolo[1,5-a]pyridine-2,5-diamine] |
| 0.005 to 250 nM | Cc1noc2cc(Nc3nc4cccc(N[C@H]5CC[C@@H](O)CC5)n4n3)ccc12 [Example 543, cis-4-(2-(3-methylbenzo[d]isoxazol-6-ylamino)-[1,2,4]triazolo[1,5-a]pyridin-5-ylamino)cyclohexanol] |
| 1000 to 10000 nM | NC(=O)c1ccc(Nc2nc3cccc(NC4CCNCC4)n3n2)cc1 [Example 516, 4-(5-(piperidin-4-ylamino)-[1,2,4]triazolo[1,5-a]pyridin-2-ylamino)benzamide] |
| 1000 to 10000 nM | O=C(N[C@H]1CCCNC1)c1cccc2nc(Nc3ccccc3)nn12 [Example 504, (S)-2-(phenylamino)-N-(piperidin-3-yl)-[1,2,4]triazolo[1,5-a]pyridine-5-carboxamide] |
| 0.005 to 250 nM | Cc1n[nH]c2cc(Nc3nc4cccc(C(F)(F)C5COCCO5)n4n3)ccc12 (stereo not drawn) [Example 563, 5-((1,4-dioxan-2-yl)difluoromethyl)-N-(3-methyl-1H-indazol-6-yl)-[1,2,4]triazolo[1,5-a]pyridin-2-amine] |

same assay, conditions: activity levels A-D, read-out: Activity Level (IC50 in the Syk HTRF assay)

| SMILES | IC50 |
| --- | --- |
| OC1CN(c2cccc3nc(Nc4ccc(C(F)(F)F)cc4)nn23)C1 [Example 287, 1-(2-(4-(trifluoromethyl)phenylamino)-[1,2,4]triazolo[1,5-a]pyridin-5-yl)azetidin-3-ol] | 0.005 to 250 nM |
| O=C1CN(Cc2cccc3nc(Nc4ccc(C(F)(F)F)cc4)nn23)CCN1 [Example 388, 4-((2-(4-(trifluoromethyl)phenylamino)-[1,2,4]-triazolo[1,5-a]pyridin-5-yl)methyl)piperazin-2-one] | 0.005 to 250 nM |
| CNC(=O)c1ccc(Nc2nc3cccc(CC4CCNC4)n3n2)cc1 (stereo not drawn) [Example 267, N-methyl-4-(5-(pyrrolidin-3-ylmethyl)-[1,2,4]triazolo[1,5-a]pyridin-2-ylamino)benzamide] | 500 to 1000 nM |
| OCCNc1cc(-c2cccc3nc(Nc4ccc(C(F)(F)F)cc4)nn23)ccn1 [Example 312, 2-(4-(2-(4-(trifluoromethyl)phenylamino)-[1,2,4]triazolo[1,5-a]pyridin-5-yl)pyridin-2-ylamino)ethanol] | 0.005 to 250 nM |

The remaining lines, values ahead:

| IC50 | SMILES |
| --- | --- |
| 0.005 to 250 nM | Cc1cc(Nc2nc3cccc(N[C@H]4CC[C@@H](O)CC4)n3n2)ccc1F [Example 320, cis-4-(2-(4-fluoro-3-methylphenylamino)-[1,2,4]triazolo[1,5-a]pyridin-5-ylamino)cyclohexanol] |
| 250 to 500 nM | CNC(=O)c1cccc(Nc2nc3cccc(N[C@H]4CC[C@@H](O)CC4)n3n2)c1 [Example 316, cis-3-(5-(4-hydroxycyclohexylamino)-[1,2,4]triazolo[1,5-a]pyridin-2-ylamino)-N-methylbenzamide] |
| 1000 to 10000 nM | CO[C@H]1CC[C@@H](N(C)c2cccc3nc(Nc4ccc(C(F)(F)F)cc4)nn23)CC1 [Example 265, cis-N^5-(4-methoxycyclohexyl)-N^5-methyl-N^2-(4-(trifluoromethyl)phenyl)-[1,2,4]triazolo[1,5-a]pyridine-2,5-diamine] |
| 500 to 1000 nM | COc1ccc(Nc2nc3cccc(N[C@H]4CC[C@@H](O)CC4)n3n2)cn1 [Example 391, cis-4-(2-(6-methoxypyridin-3-ylamino)-[1,2,4]triazolo[1,5-a]pyridin-5-ylamino)cyclohexanol] |
| 250 to 500 nM | Cc1cc(Nc2nc3cccc(CN4CCNC(=O)C4)n3n2)ccc1F [Example 228, 4-((2-(4-fluoro-3-methylphenylamino)-[1,2,4]triazolo[1,5-a]pyridin-5-yl)methyl)piperazin-2-one] |
| 1000 to 10000 nM | CC(C)(O)[C@H]1CC[C@H](Nc2cccc3nc(Nc4ccc(C(F)(F)F)cc4)nn23)CC1 (stereo in doubt) [Example 397, trans-2-(4-(2-(4-(trifluoromethyl)phenylamino)-[1,2,4]triazolo[1,5-a]pyridin-5-ylamino)cyclohexyl)propan-2-ol] |

same assay, conditions: read-out: Activity Level (Syk HTRF assay IC50)

| SMILES | IC50 |
| --- | --- |
| COCc1nc2ccc(Nc3nc4cccc(Cc5ccnc(O)c5)n4n3)cc2[nH]1 [compound 130] | 0.005 to 250 nM |
| NC(=O)c1cc(Nc2nc3cccc(-c4ccccc4)n3n2)ccc1F [compound 65, 2-fluoro-5-(5-phenyl-[1,2,4]triazolo[1,5-a]pyridin-2-ylamino)benzamide] | 1000 to 10000 nM |
| Cn1cnc2ccc(Nc3nc4cccc(-c5cccc(F)c5)n4n3)cc21 [compound 4] | 0.005 to 250 nM |
| O=C1NCc2cc(Nc3nc4cccc(-c5ccccc5)n4n3)ccc21 [compound 69, 5-(5-phenyl-[1,2,4]triazolo[1,5-a]pyridin-2-ylamino)isoindolin-1-one] | 250 to 500 nM |
| c1ccc(-c2cccc3nc(Nc4ccc5c(c4)CNC5)nn23)cc1 [compound 53] | 0.005 to 250 nM |
| Cn1ncc2ccc(Nc3nc4cccc(-c5cccc(O)c5)n4n3)cc21 [compound 19] | 0.005 to 250 nM |
| NC(=O)c1ccc(Nc2nc3cccc(-c4cccc(O)c4)n3n2)cc1 [compound 64, 4-(5-(3-hydroxyphenyl)-[1,2,4]triazolo[1,5-a]pyridin-2-ylamino)benzamide] | 0.005 to 250 nM |

The next lines start with the values.

| IC50 | SMILES |
| --- | --- |
| 0.005 to 250 nM | O[C@H]1CC[C@@H](Nc2cccc3nc(Nc4cnc5cn[nH]c5c4)nn23)CC1 [compound 107] |
| 250 to 500 nM | Cc1n[nH]c2ccc(Nc3nc4cccc(N[C@@H]5CCOC5)n4n3)cc12 [compound 115] |
| 1000 to 10000 nM | c1cc(NC2CCOCC2)n2nc(Nc3cnc4cn[nH]c4c3)nc2c1 [compound 111] |
| 0.005 to 250 nM | Cc1n[nH]c2cc(Nc3nc4cccc(N[C@H]5CC[C@@H](O)CC5)n4n3)cc(F)c12 [Example 164, cis-4-(2-(4-fluoro-3-methyl-1H-indazol-6-ylamino)-[1,2,4]triazolo[1,5-a]pyridin-5-ylamino)cyclohexanol] |
